ChEMBL document CHEMBL5303304, “EUbOPEN Chemogenomics Library - IncuCyte” (2023)
Several values for one entry are separate records, joined by “and”; a condition that tells them apart may be missing. Identical values can stand only once.

How the values were obtained:
Type in all cases: toxicity, cell-based
Fibroblast = assay: Incucyte cell viability with human fibroblast; details: 10 µM, compound concentration 10 uM
HEK-293T = assay: Incucyte cell viability with HEK293T; details: human, 10 µM, compound concentration 10 uM
U2OS = assay: Incucyte cell viability with U2OS; details: human, 10 µM, compound concentration 10 uM
Further: unitless GR value; below 1 slowed growth and below 0 cell loss.

| Compound | Growth Rate (Fibroblast; 18 h, replicate number 1) | Growth Rate (Fibroblast; 24 h, replicate number 1) | Growth Rate (HEK-293T; 0 h, replicate number 1) | Growth Rate (HEK-293T; 0 h, replicate number 2) | Growth Rate (U2OS; 0 h, replicate number 1) | Growth Rate (U2OS; 0 h, replicate number 2) | Growth Rate (Fibroblast; 6 h, replicate number 1) | Growth Rate (U2OS; 6 h, replicate number 1) | Growth Rate (U2OS; 6 h, replicate number 2) | Growth Rate (U2OS; 12 h, replicate number 1) | Growth Rate (U2OS; 12 h, replicate number 2) | Growth Rate (U2OS; 18 h, replicate number 2) | Growth Rate (U2OS; 24 h, replicate number 2) | Growth Rate (Fibroblast; 6 h, replicate number 2) | Growth Rate (Fibroblast; 18 h, replicate number 2) | Growth Rate (Fibroblast; 24 h, replicate number 2) | Growth Rate (HEK-293T; 6 h, replicate number 1) | Growth Rate (HEK-293T; 12 h, replicate number 1) | Growth Rate (HEK-293T; 18 h, replicate number 1) | Growth Rate (HEK-293T; 18 h, replicate number 2) | other results |
| --- | --- | --- | --- | --- | --- | --- | --- | --- | --- | --- | --- | --- | --- | --- | --- | --- | --- | --- | --- | --- | --- |
| CC(N)C1CCC(C(=O)Nc2ccncc2)CC1 (stereo not given) | -0.47 | 0.52 | -0.35 | 0.58 | 0.26 | -0.73 |  |  |  |  |  |  |  |  |  |  |  |  |  |  | Growth Rate (Fibroblast; 0 h, replicate number 1): -0.76 |
| O=C(NCC1(N2CCN(c3ccccc3)CC2)CCOCC1)c1cccnc1Sc1ccccc1 | -0.49 |  | 0.97 | -0.38 | 0.14 | -0.32 | 0.02 | 0.97 | 0.73 | 0.95 | 0.86 | 0.92 | 0.93 |  |  |  |  |  |  |  | Growth Rate (Fibroblast; 12 h, replicate number 1): -1 |
| c1cc(-c2cnn3cc(-c4ccc(N5CCNCC5)cc4)cnc23)c2cccnc2c1 | -0.44 | 0.25 | -0.92 | 0.43 | -0.73 |  | -0.19 | -0.87 | -0.62 | -0.69 | -0.61 | -0.48 | -0.43 | -1 | -0.74 | -0.55 | -0.69 | -0.55 | -0.44 | -0.58 | Growth Rate (Fibroblast; 0 h, replicate number 2): -0.9; Growth Rate (Fibroblast; 12 h, replicate number 1): -1; Growth Rate (Fibroblast; 12 h, replicate number 2): -0.91; Growth Rate (HEK-293T; 6 h, replicate number 2): -0.96; Growth Rate (HEK-293T; 12 h, replicate number 2): -0.77; Growth Rate (HEK-293T; 24 h, replicate number 1): -0.34; Growth Rate (HEK-293T; 24 h, replicate number 2): -0.45; Growth Rate (U2OS; 18 h, replicate number 1): -0.57; Growth Rate (U2OS; 24 h, replicate number 1): -0.49 |
| COc1cc(OC)cc(-c2cc3cnc(N)nc3nc2NC(=O)NC(C)(C)C)c1 |  |  |  | -0.38 |  | 0.36 and 0.2 | -0.05 | 0.92 |  | 0.8 |  |  |  | 0.11 | 0.45 | 0.45 | 0.92 | 0.8 | 0.71 | 0.36 and 0.62 | Growth Rate (Fibroblast; 0 h, replicate number 2): 0.79; Growth Rate (HEK-293T; 24 h, replicate number 1): 0.65 and 0.98; Growth Rate (HEK-293T; 24 h, replicate number 2): 0.38 and 0.68; Growth Rate (U2OS; 18 h, replicate number 1): 0.67 and 0.9; Growth Rate (U2OS; 24 h, replicate number 1): 0.91 |
| N#Cc1ccnc(Nc2cc(C3CCN(C4COC4)CC3)cc(N3CCC(F)(F)C3)n2)c1 | -0.85 | -0.29 | -0.35 |  |  | -1 |  | 0.88 | 0.29 | 0.44 | 0.38 | 0.46 | 0.44 | -1 | 0.21 | 0.43 | 0.58 | 0.85 | 0.46 | -0.37 | Growth Rate (Fibroblast; 12 h, replicate number 2): -0.47; Growth Rate (HEK-293T; 6 h, replicate number 2): -0.9; Growth Rate (HEK-293T; 12 h, replicate number 2): -0.54; Growth Rate (HEK-293T; 24 h, replicate number 1): 0.44; Growth Rate (HEK-293T; 24 h, replicate number 2): -0.26; Growth Rate (U2OS; 18 h, replicate number 1): 0.22; Growth Rate (U2OS; 24 h, replicate number 1): 0.18 |
| Cc1cn(CCN2CCN(c3ccccc3-c3cc(C#N)cc(C(=O)NCCCN4CCCC4)c3)CC2)c2ccccc12 | -0.68 | -0.66 |  | -1 | -1 | -0.98 | -0.88 | -0.93 | -0.89 | -0.85 | -0.84 | -0.77 | -0.74 | -0.91 | -0.81 | -0.71 | -0.62 | -0.46 | -0.45 | -0.47 | Growth Rate (Fibroblast; 12 h, replicate number 1): -0.74; Growth Rate (Fibroblast; 12 h, replicate number 2): -0.87; Growth Rate (HEK-293T; 6 h, replicate number 2): -0.59; Growth Rate (HEK-293T; 12 h, replicate number 2): -0.49; Growth Rate (HEK-293T; 24 h, replicate number 1): -0.38; Growth Rate (HEK-293T; 24 h, replicate number 2): -0.39; Growth Rate (U2OS; 18 h, replicate number 1): -0.75; Growth Rate (U2OS; 24 h, replicate number 1): -0.72 |
| O=C(NS(=O)(=O)N1CCC1)c1cc(C2CC2)c(OCC23CC4CC(CC(C4)C2)C3)cc1F | 0.03 | 0.81 | 0.85 | 0.39 | -0.5 | -0.98 | 0.24 | 0.59 | 0.7 |  | 0.73 | 0.8 | 0.87 | -1 | 0.31 | 0.37 | 0.69 | 0.88 | 0.87 | 0.99 | Growth Rate (Fibroblast; 0 h, replicate number 1): 0.19; Growth Rate (Fibroblast; 12 h, replicate number 2): -0.01; Growth Rate (HEK-293T; 6 h, replicate number 2): 0.7; Growth Rate (HEK-293T; 24 h, replicate number 1): 0.8; Growth Rate (HEK-293T; 24 h, replicate number 2): 0.92 |
